Source: EP0216127B1, “6-Phenoxymethyl-4-hydroxytetrahydropyran-2-ones, process for their preparation, their use as medicines, pharmaceutical compositions and intermediates” (HOECHST AKTIENGESELLSCHAFT, priority 1985, dated 1987)
Read-outs that look alike come from different tables or passages of the source.

Tests used:
[1] = im Humanversuch; cited from earlier work
[2] = an der Ratte; cited from earlier work
HMG-CoA-Reduktase [3] = biological target: T1, HMG-CoA-Reduktase (Rattus norvegicus, UniProt P51639); assay: Inhibition of HMG-CoA reductase activity in solubilised enzyme preparations from rat liver microsomes; type: biochemical, Ratten; settings: solubilised enzyme from liver microsomes of cholestyramine-induced rats; substrate (S,R)14C-HMG-CoA; mean of 3 parallel samples; read-out: IC50-Wert M
T1 construct: solubilisierten Enzympräparationen aus Lebermikrosomen von Ratten; from tissue; host or cells: rat liver microsomes (rats induced with cholestyramine after day-night rhythm shift)
T1 sequence (P51639 1-887): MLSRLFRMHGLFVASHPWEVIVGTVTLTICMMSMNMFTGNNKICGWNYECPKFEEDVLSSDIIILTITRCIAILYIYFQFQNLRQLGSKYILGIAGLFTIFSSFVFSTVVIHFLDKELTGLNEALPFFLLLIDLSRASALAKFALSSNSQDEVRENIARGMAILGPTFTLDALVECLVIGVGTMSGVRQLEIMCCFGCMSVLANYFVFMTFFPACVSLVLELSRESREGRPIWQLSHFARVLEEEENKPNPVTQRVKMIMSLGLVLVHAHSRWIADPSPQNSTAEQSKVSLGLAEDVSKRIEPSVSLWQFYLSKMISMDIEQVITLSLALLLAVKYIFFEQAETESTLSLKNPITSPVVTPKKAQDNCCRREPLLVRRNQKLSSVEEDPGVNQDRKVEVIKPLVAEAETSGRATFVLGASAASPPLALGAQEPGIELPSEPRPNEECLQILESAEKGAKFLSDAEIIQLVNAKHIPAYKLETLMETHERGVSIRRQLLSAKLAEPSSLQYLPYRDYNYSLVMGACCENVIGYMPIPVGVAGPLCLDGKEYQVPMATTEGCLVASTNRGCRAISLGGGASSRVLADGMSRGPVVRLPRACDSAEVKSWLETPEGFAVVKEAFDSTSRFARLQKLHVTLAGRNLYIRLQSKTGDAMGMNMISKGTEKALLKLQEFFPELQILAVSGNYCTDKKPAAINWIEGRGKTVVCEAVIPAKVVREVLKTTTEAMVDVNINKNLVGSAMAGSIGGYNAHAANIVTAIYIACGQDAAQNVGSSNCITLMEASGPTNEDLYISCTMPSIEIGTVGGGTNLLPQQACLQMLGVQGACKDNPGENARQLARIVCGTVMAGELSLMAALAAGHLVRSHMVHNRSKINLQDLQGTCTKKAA
Excerpt: 1) Inhibierung der HMG-CoA-Reduktase-Aktivität an solubilisierten Enzympräparationen aus Ratten-Lebermikrosomen
Die HMG-CoA-Reduktase-Aktivität wurde an solubilisierten Enzympräparationen aus Lebermikrosomen von Ratten gemessen, die nach Umstellung im Tag-Nacht-Rhythmus mit Cholestyramin (@Cuemid) induziert wurden. Als Substrat diente (S,R)^14C-HMG-CoA, die Konzentration von NADPH wurde während der Inkubation durch ein regenerierendes System aufrechterhalten. Die Abtrennung von ^14C-Me- valonat von Substrat und anderen Produkten (z.B. ^14C-HMG) erfolgte über Säulenelution, wobei das Elutionsprofil jeder Einzelprobe ermittelt wurde. Auf die ständige Mitführung von ^3H-Mevalonat wurde verzichtet, weil es bei der Bestimmung um die Relativangabe der Hemmwirkung handelt. In eine Versuchsreihe wurden jeweils die enzymfreie Kontrolle, der enzymhaltige Normalansatz (= 100%) und solche mit Präparatezusätzen zusammen behandelt. Jeder Einzelwert wurde als Mittelwert aus 3 Parallelproben gebildet. Die Signifikanz der Mittelwertsunterschiede zwischen präparatefreien und präparatehaltigen Proben wurde nach dem t-Test beurteilt. Nach der oben beschriebenen Methode wurden von den erfindungsgemäßen Verbindungen z.B. folgende Hemmwerte auf die HMG-CoA-Reduktase ermittelt (IC50-Wert M = molare Konzentration der Verbindung, die für eine 50%ige Hemmung erforderlich ist): […]

HMG-CoA-Reduktase [4] = biological target: T2, HMG-CoA-Reduktase (Mus musculus, UniProt Q01237); assay: Suppression or inhibition of HMG-CoA reductase in cell cultures of fibroblasts (L cells); type: cell-based; settings: 3 h incubation of confluent L-Zellen in lipoprotein-free medium; molar concentration for 50% inhibition of HMG-CoA reductase activity
T2 construct: dann wurde die HMG-CoA-Reduktaseaktivität der Zellen, modifiziert nach Chang et al; endogenous in cells; host or cells: L cells (fibroblasts)
T2 sequence (Q01237 1-887): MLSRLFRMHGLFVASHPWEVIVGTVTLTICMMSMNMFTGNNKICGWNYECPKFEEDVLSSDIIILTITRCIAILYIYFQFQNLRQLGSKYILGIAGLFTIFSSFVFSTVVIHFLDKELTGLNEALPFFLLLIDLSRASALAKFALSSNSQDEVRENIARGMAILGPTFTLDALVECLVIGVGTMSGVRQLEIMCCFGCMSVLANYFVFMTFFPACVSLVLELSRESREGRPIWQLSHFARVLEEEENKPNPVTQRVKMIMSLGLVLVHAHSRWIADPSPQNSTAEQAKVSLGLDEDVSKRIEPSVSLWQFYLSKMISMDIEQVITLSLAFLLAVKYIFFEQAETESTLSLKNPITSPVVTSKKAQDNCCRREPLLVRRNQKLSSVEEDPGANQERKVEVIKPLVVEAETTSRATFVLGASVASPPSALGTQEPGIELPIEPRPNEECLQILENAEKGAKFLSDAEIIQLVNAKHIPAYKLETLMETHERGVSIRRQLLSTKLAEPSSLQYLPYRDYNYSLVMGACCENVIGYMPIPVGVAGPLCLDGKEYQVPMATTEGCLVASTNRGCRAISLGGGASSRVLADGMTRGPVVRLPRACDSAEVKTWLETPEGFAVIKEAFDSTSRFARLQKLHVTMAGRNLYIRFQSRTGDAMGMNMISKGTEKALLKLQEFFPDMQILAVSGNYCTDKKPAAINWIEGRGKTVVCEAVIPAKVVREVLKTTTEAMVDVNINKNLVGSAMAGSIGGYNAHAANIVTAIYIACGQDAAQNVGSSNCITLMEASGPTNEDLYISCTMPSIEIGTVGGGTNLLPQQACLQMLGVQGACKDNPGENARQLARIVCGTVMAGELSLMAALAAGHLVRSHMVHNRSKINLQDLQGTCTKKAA
Excerpt: 2. Supprimierung bzw. Inhibierung der HMG-CoA-Reduktase in Zellkulturen von Fibroblasten
Monolayers von Fibroblasten (L-Zellen) in lipoproteinfreiem Nährmedium wurden mit entsprechenden Konzentrationen der Prüfsubstanzen eine bestimmte Zeit (z.B. 3 Stunden) inkubiert, dann wurde die HMG-CoA-Reduktaseaktivität der Zellen, modifiziert nach Chang et al. (J. Biol. Chem. 256, 6174 (1981) bestimmt. Dazu wurden die Zellextrakte mit D, L [^3H]-HMG-CoA inkubiert und das unter der Einwirkung der vorhandenen HMG-CoA-Reduktaseaktivität aus den Zellen gebildete Produkt [3H]-Mevalonat nach Cyclisierung zu [^3H]-Mevalonolacton dünnschichtchromatographisch vom Ausgangsprodukt getrennt und unter Verwendung eines internen Standards von ^14C-Mevalonat die Menge des in der Zeiteinheit gebildeten [3H]-Mevalonats, bezogen auf Zellproteinmenge bestimmt. Die unter Zusatz einer bestimmten Konzentration eines Prüfpräparates gefundene HMG-CoA-Reduktaseaktivität der Zellkultur wurde prozentual auf jene einer gleichbehandelten ohne Prüfpräparat, jedoch gleicher Lösungsmittelkonzentration, bezogen.
Unter der Bedingung einer dreistündigen Inkubationszeit konfluenter L-Zellen im lipoproteinfreien Nährmedium mit den untersuchten Verbindungen wurden folgende für eine 50%ige Hemmung der HMG-CoA-Reduktaseaktivität (ICso) erforderliche molare Konzentration der Prüfpräparate ermittelt: […]

SMILES | IC50 (HMG-CoA-Reduktase [3]) [nM] | IC50 (HMG-CoA-Reduktase [4]) [nM] | further results
CC(O)(CC(=O)O)CC(=O)O [3-Hydroxy-3-methyl-glutarsäure] | – | – | cholesterinsenkende Wirkung [1]: signifikante cholesterinsenkende Wirkung; cholesterinsenkende Wirkung [2]: signifikante cholesterinsenkende Wirkung
Cc1cc(Cl)cc(C(c2ccc(F)cc2)c2ccc(F)cc2)c1OC[C@@H]1C[C@@H](O)CC(=O)O1 [44 bb] | 100 | – | –
O=C1C[C@H](O)C[C@@H](COc2c(Cl)cc(Cl)cc2C(CCOc2ccc(F)cc2)c2ccc(F)cc2)O1 (stereo partly drawn) [44 dd] | 150 | – | –
Cc1cc(C(c2ccc(F)c(C)c2)c2cc(Cl)cc(C)c2OC[C@@H]2C[C@@H](O)CC(=O)O2)ccc1F [44 hh] | 50 | – | –
C=CCc1cc(Cl)cc(CCCOc2ccc(F)cc2)c1OC[C@@H]1C[C@@H](O)CC(=O)O1 [44 j] | 460 | 100000 | –
Cc1cc(C)c(OC[C@@H]2C[C@@H](O)CC(=O)O2)c(CCc2ccc(F)cc2)c1 [44 m] | 530 | – | –
O=C1C[C@H](O)C[C@@H](COc2c(Cl)cc(Cl)cc2-c2ccccc2)O1 [44 mm] | 190 | – | –
Cc1cc(C)c(OC[C@@H]2C[C@@H](O)CC(=O)O2)c(C(C)c2ccc(F)cc2)c1 (stereo partly drawn) [44 r] | 160 | – | –
Cc1cc(C)c(OC[C@@H]2C[C@@H](O)CC(=O)O2)c(Cc2ccc(F)cc2)c1 [44 s] | 400 | – | –
Cc1cc(C)c(OC[C@@H]2C[C@@H](O)CC(=O)O2)c(CCOc2ccc(F)cc2)c1 [44 t] | 500 | – | –
Cc1cc(C)c(OC[C@@H]2C[C@@H](O)CC(=O)O2)c(C(CC(C)C)c2ccc(F)cc2)c1 (stereo partly drawn) [44 u] | 140 | – | –
Cc1cc(Cl)cc(CCCOc2ccc(Cl)cc2)c1OC[C@@H]1C[C@@H](O)CC(=O)O1 [44 x] | 50 | 14000 | –
Cc1cc(C)c(OC[C@@H]2C[C@@H](O)CC(=O)O2)c(CC2CCCCC2)c1 [44 z] | 100 | – | –

Further lines, with some results ahead:

IC50 (HMG-CoA-Reduktase [3]) [nM] | IC50 (HMG-CoA-Reduktase [4]) [nM] | SMILES | further results
75 | 10000 | Cc1cc(Cl)cc(CCCOc2ccc(F)cc2)c1OC[C@@H]1C[C@@H](O)CC(=O)O1 [44 i] | –
25 | – | O=C1C[C@H](O)C[C@@H](COc2c(Cl)cc(Cl)cc2CC2CCCCC2)O1 [44 kk] | –
7000 | – | CC(C)(C)C(=O)OCCCc1cc(Cl)cc(CCCOc2ccc(F)cc2)c1OC[C@@H]1C[C@@H](O)CC(=O)O1 [44 l] | –
190 | – | O=C1C[C@H](O)C[C@@H](COc2c(Cl)cc(Cl)cc2C(=O)C2CCCCC2)O1 [44 nn] | –
70 | 50000 | Cc1cc(C)c(OC[C@@H]2C[C@@H](O)CC(=O)O2)c(C(c2ccc(F)cc2)c2ccc(F)cc2)c1 [44 q] | –
100 | 40000 | COc1ccc(C(c2ccc(F)cc2)c2cc(C)cc(C)c2OC[C@@H]2C[C@@H](O)CC(=O)O2)cc1 (stereo partly drawn) [44 v] | –
75 | 15000 | Cc1cc(Cl)cc(CC2CCCCC2)c1OC[C@@H]1C[C@@H](O)CC(=O)O1 [44 y] | –
